Measured values from patent US10617680B2 (CELGENE QUANTICEL RESEARCH, INC., priority 2017, dated 2020).

Target: CBP (Homo sapiens (Human), UniProt Q92793)
Test: In vitro CBP inhibition (AlphaScreen, biotinylated H4-tetraacetyl peptide)
Assay type: binding
Conditions: AlphaScreen, Table 29; read-out: CBP IC50
Protocol: The CBP-inhibitory activity of the compounds described herein was determined by calculating the IC50. More specifically, CBP inhibitor activity was assayed as follows: CBP was cloned and expressed in E. coli as His-tag protein and purified by Nickel affinity and gel-filtration chromatography. […] CBP binding and inhibition is assessed by monitoring the interaction of biotinylated H4-tetraacetyl peptide (AnaSpec, H4K5/8/12/16(Ac), biotin-labeled) with the target using the AlphaScreen technology (Perkin Elmer). In a 384-well ProxiPlate CBP (50 nM final) was combined with peptide (20 nM final) in 50 mM HEPES (pH 7.3), 10 mM NaCl, 0.25 mM TCEP, 0.1% (w/v) BSA, and 0.005% (w/v) Brij-35 either in the presence of DMSO (final 0.4% DMSO) or compound dilution series in DMSO. After 20 min incubation at room temp, Alpha-streptavidin donor beads and Nickel Chelate acceptor beads were added to a final concentration of 5 μg/mL.
The ability of the compounds disclosed herein to inhibit CBP activity was quantified and the respective IC50 value determined.

Chain of CBP (Q92793 1081-1197): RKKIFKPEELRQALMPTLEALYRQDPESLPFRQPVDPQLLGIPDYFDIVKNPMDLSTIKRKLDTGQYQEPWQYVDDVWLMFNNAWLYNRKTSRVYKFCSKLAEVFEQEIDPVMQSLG

Row | SMILES | IC50 [nM]
1 | CC(C)n1cc(-c2cn(C)c(=O)cc2-c2ccccc2)cn1 [Example 138, 5-(1-isopropyl-1H-pyrazol-4-yl)-1-methyl-4-phenylpyridin-2(1H)-one] | < 500
2 | Cn1cc(-c2cnn(Cc3ccccc3)c2)c(-c2ccccn2)cc1=O [Example 131, 5′-(1-benzyl-1H-pyrazol-4-yl)-1′-methyl-[2,4′-bipyridin]-2′(1′H)-one] | 500 to 5000
3 | CCOc1ccc(-c2cc(=O)n(C)cc2-c2cnn(-c3cc(OC)ccc3C#N)c2)cn1 [Example 265, 2-[4-(6-Ethoxy-1′-methyl-6′-oxo-1′,6′-dihydro-[3,4′]bipyridinyl-3′-yl)-pyrazol-1-yl]-4-methoxy-benzonitrile] | < 500
4 | Cn1cc(-c2cc(=O)n(C)cc2-c2cnn(Cc3ccccc3)c2)cn1 [Example 108, 5-(1-benzyl-1H-pyrazol-4-yl)-1-methyl-4-(1-methyl-1H-pyrazol-4-yl)pyridin-2(1H)-one] | < 500
5 | CC(c1ccccc1)n1cc(-c2cc(N(C)C)c(=O)n(C)c2)cn1 (stereo not shown) [Example 196, 3-Dimethylamino-1-methyl-5-[1-(1-phenyl-ethyl)-1H-pyrazol-4-yl]-1H-pyridin-2-one] | 500 to 5000
6 | Cn1cc(-c2cnn(-c3ccccc3C#N)c2)c(-c2ccn(C3CC3)c(=O)c2)cc1=O [Example 222, 2-[4-(1′-Cyclopropyl-1-methyl-6,2′-dioxo-1,6,1′,2′-tetrahydro-[4,4′]bipyridinyl-3-yl)-pyrazol-1-yl]-benzonitrile] | < 500
7 | CCOc1cc(=O)n(C)cc1-c1cnn(-c2ccccc2F)c1 [Example 252, 4-ethoxy-5-(1-(2-fluorophenyl)-1H-pyrazol-4-yl)-1-methylpyridin-2(1H)-one] | < 500
8 | COC(=O)Cn1cc(-c2cn(C)c(=O)cc2-c2ccccc2)cn1 [Example 140, methyl 2-(4-(1-methyl-6-oxo-4-phenyl-1,6-dihydropyridin-3-yl)-1H-pyrazol-1-yl)acetate] | < 500
9 | CNC(=O)c1ccc(-c2cc(=O)n(C)cc2-c2cnn(-c3ccccc3C#N)c2)cc1 [Example 219, 4-{5-[1-(2-Cyano-phenyl)-1H-pyrazol-4-yl]-1-methyl-2-oxo-1,2-dihydro-pyridin-4-yl}-N-methyl-benzamide] | < 500
10 | COc1cc(=O)n(C)cc1-c1cnn(C(C)c2ccccc2)c1 (stereo not shown) [Example 175, 4-methoxy-1-methyl-5-(1-(1-phenylethyl)-1H-pyrazol-4-yl) pyridin-2(1H)-one] | < 500
11 | CCOc1cc(=O)n(C)cc1-c1cnn(-c2cc(OC)ccc2C(=O)O)c1 [Example 247, 2-[4-(4-Ethoxy-1-methyl-6-oxo-1,6-dihydro-pyridin-3-yl)-pyrazol-1-yl]-4-methoxy-benzoic acid] | < 500
12 | CC(C)Oc1cc(=O)n(C)cc1-c1cnn(-c2ccccc2C(=O)O)c1 [Example 203, 2-[4-(4-Isopropoxy-1-methyl-6-oxo-1,6-dihydro-pyridin-3-yl)-pyrazol-1-yl]-benzoic Acid] | < 500
13 | Cn1cc(-c2cnn(Cc3ccccc3)c2)c(OCCC(=O)O)cc1=O [Example 166, 3-[5-(1-Benzyl-1H-pyrazol-4-yl)-1-methyl-2-oxo-1,2-dihydro-pyridin-4-yloxy]-propionic acid] | < 500
14 | CCS(=O)(=O)NC(=O)c1ccccc1-n1cc(-c2cn(C)c(=O)cc2C2CC2)cn1 [Example 303, Ethanesulfonic acid 2-[4-(4-cyclopropyl-1-methyl-6-oxo-1,6-dihydro-pyridin-3-yl)-pyrazol-1-yl]-benzoylamide] | < 500
15 | CCOc1cc(=O)n(C)cc1-c1cnn2c1CCC2 [Example 95, 5-(5,6-dihydro-4H-pyrrolo[1,2-b]-pyrazol-3-yl)-4-ethoxy-1-methylpyridin-2(1H)-one] | < 500
16 | Cc1cccc(C)c1-c1cc(=O)n(C)cc1-c1cnn(Cc2ccccc2)c1 [Example 189, 5-(1-Benzyl-1H-pyrazol-4-yl)-4-(2,6-dimethyl-phenyl)-1-methyl-1H-pyridin-2-one] | > 5000
17 | CCOc1ccc(-c2cc(=O)n(C)cc2-c2cnn(-c3ccccc3C(=O)NC#N)c2)cn1 [Example 296, N-cyano-2-(4-(6-ethoxy-1′-methyl-6′-oxo-1′,6′-dihydro-[3,4′-bipyridin]-3′-yl)-1H-pyrazol-1-yl)benzamide] | < 500
18 | COc1ccc(C#N)c(-n2cc(-c3cn(C)c(=O)cc3-c3ccnc(OC)c3)cn2)c1 [Example 266, 4-Methoxy-2-[4-(2′-methoxy-1-methyl-6-oxo-1,6-dihydro-[4,4′]bipyridinyl-3-yl)-pyrazol-1-yl]-benzonitrile] | < 500
19 | CCOc1cc(=O)n(C)cc1-c1cnn(-c2cccc(OC)c2C#N)c1 [Example 177, 2-[4-(4-Ethoxy-1-methyl-6-oxo-1,6-dihydro-pyridin-3-yl)-pyrazol-1-yl]-6-methoxy-benzonitrile] | < 500
20 | Cn1cc(-c2cnn(Cc3cccc(C#N)c3)c2)ccc1=O [Example 4, 3-((4-(1-methyl-6-oxo-1,6-dihydropyridin-3-yl)-1H-pyrazol-1-yl)methyl)benzonitrile] | 500 to 5000

Further lines, results first:

Row | IC50 [nM] | SMILES
21 | < 500 | CCOc1ccc(-c2cc(=O)n(C)cc2-c2cnn(-c3cccc(Cl)c3C#N)c2)cn1 [Example 365, 2-chloro-6-(4-(6-ethoxy-1′-methyl-6′-oxo-1′,6′-dihydro-[3,4′-bipyridin]-3′-yl)-1H-pyrazol-1-yl)benzonitrile]
22 | < 500 | Cn1cc(-c2cnn(-c3cccc(Cl)c3C#N)c2)c(-c2ccc(NCC3CC3)nc2)cc1=O [Example 348, 2-chloro-6-(4-{6-[(cyclopropylmethyl)amino]-1′-methyl-6′-oxo-1′,6′-dihydro-[3,4′-bipyridine]-3′-yl}-1H-pyrazol-1-yl)benzonitrile]
23 | < 500 | Cn1cc(-c2cnn(-c3cccc(F)c3C#N)c2)c(-c2ccc(C3CCCC3)nc2)cc1=O [Example 378, 2-(4-(6-cyclopentyl-1′-methyl-6′-oxo-1′,6′-dihydro-[3,4′-bipyridin]-3′-yl)-1H-pyrazol-1-yl)-6-fluorobenzonitrile]
24 | < 500 | COc1ccc(-c2cc(=O)n(C)cc2-c2cnn(-c3cccc(Cl)c3C#N)c2)cn1 [Example 277, 2-Chloro-6-[4-(6-methoxy-1′-methyl-6′-oxo-1′,6′-dihydro-[3,4′]bipyridinyl-3′-yl)-pyrazol-1-yl]-benzonitrile]
25 | < 500 | CC(C)Oc1ccc(-c2cc(=O)n(C)cc2-c2cnn(-c3ccccc3C#N)c2)cn1 [Example 235, 2-[4-(6-Isopropoxy-1′-methyl-6′-oxo-1′,6′-dihydro-[3,4′]bipyridinyl-3′-yl)-pyrazol-1-yl]-benzonitrile]
26 | < 500 | CCn1ccc(-c2cc(=O)n(C)cc2-c2cnn(-c3cccc(C4CC4)c3C#N)c2)cc1=O [Example 386, 2-cyclopropyl-6-[4-[4-(1-ethyl-2-oxo-4-pyridyl)-1-methyl-6-oxo-3-pyridyl]pyrazol-1-yl]benzonitrile]
27 | < 500 | CC(C)Oc1ccc(-c2cc(=O)n(C)cc2-c2cnn(-c3cccc(F)c3C#N)c2)cn1 [Example 358, 2-fluoro-6-[4-[4-(6-isopropoxy-3-pyridyl)-1-methyl-6-oxo-3-pyridyl]pyrazol-1-yl]benzonitrile]
28 | < 500 | CNc1ccc(-c2cc(=O)n(C)cc2-c2cnn(-c3cccc(Cl)c3C#N)c2)cn1 [Example 341, 2-chloro-6-(4-(1′-methyl-6-(methylamino)-6′-oxo-1′,6′-dihydro-[3,4′-bipyridin]-3′-yl)-1H-pyrazol-1-yl)benzonitrile]
